Converted amounts (≈) assume the structure as drawn. “And” between values parts separate entries of the source, which are not always exact repeats. Equal values may be shown once. Read-outs that look alike come from different tables or passages of the source.
Assays:
[1] = biological target: T1, Norepinephrine NE transporter (Homo sapiens, UniProt P23975); assay: CEREP transporter binding, NE; settings: tested at 10 μM; read-out: inhibition of control specific binding
T1 construct: CEREP (contract testing)
T1 sequence (P23975 whole entry): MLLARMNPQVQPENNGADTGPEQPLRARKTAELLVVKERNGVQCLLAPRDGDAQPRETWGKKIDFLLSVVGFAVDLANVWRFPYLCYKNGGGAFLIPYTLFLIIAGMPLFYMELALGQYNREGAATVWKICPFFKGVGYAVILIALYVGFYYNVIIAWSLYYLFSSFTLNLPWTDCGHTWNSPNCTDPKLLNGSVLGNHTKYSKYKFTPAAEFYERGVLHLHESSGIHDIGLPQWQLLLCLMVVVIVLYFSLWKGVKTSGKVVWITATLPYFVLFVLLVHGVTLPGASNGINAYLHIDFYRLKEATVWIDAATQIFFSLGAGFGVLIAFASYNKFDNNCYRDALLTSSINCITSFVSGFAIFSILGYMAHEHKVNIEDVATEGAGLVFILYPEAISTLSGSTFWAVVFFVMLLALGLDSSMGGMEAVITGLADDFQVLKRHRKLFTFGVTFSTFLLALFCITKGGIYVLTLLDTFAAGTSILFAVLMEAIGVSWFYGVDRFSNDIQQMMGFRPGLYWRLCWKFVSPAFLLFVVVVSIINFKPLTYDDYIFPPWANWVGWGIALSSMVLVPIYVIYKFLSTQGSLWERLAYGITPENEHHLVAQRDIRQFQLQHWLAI
Source text: (§1) In vitro testing for safety pharmacology and early ADMET (Absorption, Distribution, Metabolism, Excretion, Toxicity) studies of compound 109 were contracted out to CEREP (15318 NE 95th Street, Redmond, Wash., 98052, USA www.cerep.com) under a service agreement and included evaluation of inhibitory binding to a panel of 27 standard receptors and three transporters (See FIG. 60 (Table 31) and FIG. 61 (Table 32)) which included: adenosine receptors (A1 and A2A), adrenergic receptors (alpha 1, alpha 2, beta 1), angiotensin II receptor (AT1), benzodiazapene receptor (BZD), bradykinin receptor (B2), cholecystokinin receptor (CCK1), dopamine receptors (D1, D2S), endothelin receptor (ETA), GABA receptor (GABA), glutamate receptor (NMDA), histamine receptor (H1 central), melanocortin receptor (MC4), muscarinic receptor (M, non-selective), neurokinin receptor (NK1), neuropeptide Y receptor (Y), nicotinic receptor (neuronal, alpha-BGTX-insensitive), opiate receptor (non-selective opiate), orphanin receptor (ORL1), phencyclidine receptor (PCP), serotonin receptor (5-HT), sigma receptor (sigma non-selective), steroid receptor (glucocorticoid receptor, GR), and NE, DA, and 5-HT transporters.
(§2) The specific ligand binding to the receptors is defined as the difference between the total binding and the nonspecific binding determined in the presence of an excess of unlabelled ligand.

[2] = test system: RIF^R M. tuberculosis strain 2482; assay type: cell-based
[3] = Toxicity, dose escalation study in mice; settings: C57BL/6, mouse, in vivo
Description: Toxicity was assessed using a dose escalation study. This study was performed with ten C57BL/6 mice per candidate. Every two days, the mice were administered an increased concentration of the drug, and monitored for detrimental effects. The administration scheme was 50, 100, 200, 400, 600, 800 and 1000 mg/kg.

[4] = test system: M. tuberculosis H37Rv (Pasteur); assay: Rapid in vivo model of TB, body weight of infected mice; parameters: species or system C3H female mice
[5] = biological target: T2, melanocortin MC4 receptor (Homo sapiens, UniProt P32245); assay: CEREP receptor binding, MC4; settings: tested at 10 μM; read-out: inhibition of control specific binding
T2 construct: CEREP (contract testing)
T2 sequence (P32245 whole entry): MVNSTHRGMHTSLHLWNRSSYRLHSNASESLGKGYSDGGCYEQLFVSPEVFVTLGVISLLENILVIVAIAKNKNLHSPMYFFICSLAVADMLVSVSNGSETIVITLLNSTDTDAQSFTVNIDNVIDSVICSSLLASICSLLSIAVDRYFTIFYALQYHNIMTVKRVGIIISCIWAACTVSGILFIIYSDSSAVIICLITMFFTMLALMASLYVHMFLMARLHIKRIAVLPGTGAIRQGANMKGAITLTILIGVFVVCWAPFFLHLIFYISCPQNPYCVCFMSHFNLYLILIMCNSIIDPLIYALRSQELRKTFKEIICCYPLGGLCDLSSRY
Source text: as §1, §2

M. kansasii = assay: Spectrum of activity MIC, MOTT, agar proportion method; assay type: cell-based; settings: Mycobacterium kansasii; three tested
[6] = test system: H37Rv strain of Mycobacterium tuberculosis; assay: microbe, parasite or virus in culture; assay type: cell-based
Aspergillus fumigatus = assay: Spectrum of activity MIC, broth microdilution NCCLS M38-A (mold); assay type: cell-based; settings: three isolates
Description: Compound 109 was tested against a representative panel of commonly encountered clinical microorganisms comprising opportunistic pathogens, target pathogens and normal human flora. The spectrum of activity of compound 109 was evaluated by performing recommended broth microdilution methods. NCCLS M27-A2, 2003 for yeast and NCCLS M38-A, 2003 for mold.

M. tuberculosis [MTB] = assay: Spectrum of activity MIC, BACTEC 460 TB system; assay type: cell-based; settings: Mycobacterium tuberculosis
[7] = test system: M. chelonae group (M. chelonae and M. abscessus); assay: Spectrum of activity MIC, rapid-grower, broth microdilution (NCCLS M24-A); assay type: cell-based; settings: Mycobacteroides chelonae; three strains tested
[8] = Maximum tolerated dose, one-time gavage dose in mice; assay type: in vivo
Description: […] Each dose of each compound consisted of one group of 3 mice. Monitoring of the mice was done twice a day for the duration of the experiment. […] The MTD (mg/kg) is the highest dose that results in no lethality/tissue abnormality.
• 1. […] The compounds are dissolved in the appropriate concentration of ethanol in distilled water and administered in a volume of 0.2 ml per mouse. • 2. Observation of mice: Mice will be observed 4 and 6 hours post administration, then twice daily for one week. Survival and body weight of mice will be closely monitored throughout the study. • 3. […] Critical organs will be aseptically removed and observed; tissues from the liver, heart, and kidneys are extracted and placed into 10% formalin solution. These fixed tissues are sectioned and examined for abnormalities resulting from drug toxicity.

wild type of M.tb = assay: MIC, secondary screening, wild type; assay type: cell-based, Mycobacterium tuberculosis; settings: Mycobacterium tuberculosis, WT

CC(C)=CCC/C(C)=C/CNCCNC1C2CC3CC(C2)CC1C3 (stereo not shown) [Compound 109, N-Geranyl-N′-(2-adamanthyl)ethane-1,2-diamine]
inhibition at 10 µM [1]: 87%
x/y quotient ([2]; 0.25 MIC SQ109 (0.08 mg/L) + 10 mg/L rifampicin): 0.66
x/y quotient ([2]; 0.5 MIC SQ109 + rifampicin 25 mg/L): 0.497
x/y quotient ([2]; 0.5 MIC SQ109 + rifampicin 50 mg/L): 0.39
x/y quotient ([2]; 0.5 MIC SQ109 + rifampicin 100 mg/L): 0.33
growth inhibition ([2]; 0.5 MIC SQ109 added to 100 mg/L rifampicin): more than 99%
tolerated dose [3]: 800 mg/kg
average body weight ([4]; SQ109 10 mg/kg + RIF 2 mg/kg orally, 6 mice, by the 3 wk, uninfected control 24.5 g, untreated 17 g): 24.3 grams
body weight of infected mice ([4]; SQ109 in combination with PZA (50 mg/kg)): slight improvement
body weight of infected mice ([4]; compound 109 (10 mg/kg) in combination with Rifampicin (2 mg/kg)): comparable to non-infected controls
body weight of infected mice ([4]; compound 109 (10 mg/kg) in combination with Rifampicin (2 mg/kg), listed as SQ109): fully prevented body weight loss
body weight of infected mice ([4]; compound 109 in combination with EMB (10 mg/kg)): closer to placebo treated controls
body weight of infected mice ([4]; compound 109 in combination with EMB (10 mg/kg), listed as SQ109): No effect
body weight of infected mice ([4]; compound 109 in combination with INH (1 mg/kg)): comparable to non-infected controls
body weight of infected mice ([4]; compound 109 in combination with INH (1 mg/kg), listed as SQ109): enhanced activity
body weight of infected mice ([4]; compound 109 in combination with Moxi (10 mg/kg)): closer to placebo treated controls
body weight of infected mice ([4]; compound 109 in combination with Moxi (10 mg/kg), listed as SQ109): antagonistic effect
average weight ([4]; single drug alone (SQ109 10 mg/kg; RIF 2 mg/kg), by the 3 wk): 21.3 g
body weight of infected mice ([4]; single drug alone (SQ109 10 mg/kg; Rifampin 2 mg/kg)): closer to placebo treated controls
inhibition at 10 µM [5]: 90%
MIC (M. kansasii): 16 µg/mL (≈ 48.4 µM)
MIC [6]: 1.953 µM and 1.95 µM
MIC ([6]; Mycobacterium tuberculosis, H37RV, Table 10, from uM and MW, read-out: MIC): 0.879 µg/mL
MIC ([6]; Mycobacterium tuberculosis, H37RV, Table 10, read-out: MIC): 1.95 µM
MIC ([6]; Mycobacterium tuberculosis, H37RV, Table 15, read-out: MIC): 1.56 µM
MIC ([6]; Mycobacterium tuberculosis, H37RV, previously determined, read-out: MIC by micro-broth dilution): 0.2 µM and 0.11 µg/mL
MIC ([6]; Mycobacterium tuberculosis, H37RV, read-out: MIC): 1.95 µM
MIC (Aspergillus fumigatus): 16 µg/mL (≈ 48.4 µM)
MIC (M. tuberculosis [MTB]): 0.25 to 0.5 µg/mL (≈ 0.756 to 1.51 µM)
MIC [7]: 16 µg/mL (≈ 48.4 µM)
Mice ([8]; 109 as HCl salt at 800 mg/kg, day 1): 3
Mice ([8]; 109 as HCl salt at 800 mg/kg, day 2): 2/1
Mice ([8]; 109 as HCl salt at 800 mg/kg, day 3): 1/1
Mice ([8]; 109 as HCl salt at 800 mg/kg, day 4): 1
Mice ([8]; 109 as HCl salt at 800 mg/kg, day 5): 1
Mice ([8]; 109 as HCl salt at 800 mg/kg, day 6): 1
Mice ([8]; 109 as HCl salt at 800 mg/kg, day 7): 1
Day of death ([8]; 109 as HCl salt at 800 mg/kg, 800 mg/kg): 2 and 3
Mice ([8]; 109 as TFA salt at 800 mg/kg, day 1): 1
Mice ([8]; 109 as TFA salt at 800 mg/kg, day 2): 1
Mice ([8]; 109 as TFA salt at 800 mg/kg, day 3): 1
Mice ([8]; 109 as TFA salt at 800 mg/kg, day 4): 1
Mice ([8]; 109 as TFA salt at 800 mg/kg, day 5): 1
Mice ([8]; 109 as TFA salt at 800 mg/kg, day 6): 1
Mice ([8]; 109 as TFA salt at 800 mg/kg, day 7): 1
Mice ([8]; 109 at 100 mg/kg, day 1): 3
Mice ([8]; 109 at 100 mg/kg, day 2): 3
Mice ([8]; 109 at 100 mg/kg, day 3): 3
Mice ([8]; 109 at 100 mg/kg, day 4): 3
Mice ([8]; 109 at 100 mg/kg, day 6): 3
Mice ([8]; 109 at 100 mg/kg, day 7): 3
Mice ([8]; 109 at 300 mg/kg, day 1): 3
Mice ([8]; 109 at 300 mg/kg, day 2): 3
Mice ([8]; 109 at 300 mg/kg, day 3): 3
Mice ([8]; 109 at 300 mg/kg, day 4): 3
Mice ([8]; 109 at 300 mg/kg, day 6): 3
Mice ([8]; 109 at 300 mg/kg, day 7): 3
Mice ([8]; 109 at 600 mg/kg, day 1): 3
Mice ([8]; 109 at 600 mg/kg, day 2): 3
Mice ([8]; 109 at 600 mg/kg, day 3): 3
Mice ([8]; 109 at 600 mg/kg, day 4): 3
Mice ([8]; 109 at 600 mg/kg, day 6): 3
Mice ([8]; 109 at 600 mg/kg, day 7): 3
Mice ([8]; 109 at 1000 mg/kg, day 1): 3
Mice ([8]; 109 at 1000 mg/kg, day 2): 2
Mice ([8]; 109 at 1000 mg/kg, day 3): 2
Mice ([8]; 109 at 1000 mg/kg, day 4): 1
Mice ([8]; 109 at 1000 mg/kg, day 6): 0
MTD at 1 week ([8]; female, C57BL/6, mouse, in vivo, po, one-time dose by gavage): 600 mg/kg
changes in organs ([8]; mice surviving one week): No visible changes in organs
fatal dose ([8]; one-time dose, two of 3 mice died within 3 days): 800 mg/kg
MIC (wild type of M.tb; value in brackets, read-out: MIC (or uM)): 0.18 µM
MIC (wild type of M.tb; EMB, RL241, Cmpd#59 as 2HCl salt, Cmpd#109 as 2CF3COOH salt, read-out: MIC): 0.1 µg/mL
